Results from PubChem BioAssay AID1918938 (Molecular Pharmacology Branch, DTP, NCI, 2023).
Values joined by “and” are separate entries in the source; they are usually repeats but may differ in a detail not shown here. Equal values may be shown once.

Tested on: 556581-035-R-J1-PDC complex spheroid viability
Experiment: Anticancer human tumor 556581-035-R-J1-PDC patient-derived ovarian carcinoma cell line growth inhibition
Conditions: for viability, T/C: stronger effect = lower value
Summary of the method: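 Multicellular complex spheroids of tumor cells with human endothelial cells (HUVEC) and mesenchymal stem cells; the LSD1 inhibitor iadademstat was combined with standard-of-care or investigational agents. Top concentration at or near clinical Cmax, half-log dilutions; final DMSO ≤0.25%.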

[1] = curve of first compound, second compound 0.1 µM
[2] = curve of first compound, second compound 0.316 µM
[3] = curve of first compound, second compound 1 µM
[4] = curve of first compound, second compound 3.16 µM
[5] = curve of first compound, second compound 10 µM
[6] = second compound 0.1 µM, first compound 0.00949 µM
[7] = second compound 0.1 µM, first compound 0.03 µM
[8] = second compound 0.1 µM, first compound 0.0949 µM
[9] = second compound 0.1 µM, first compound 0.3 µM
[10] = second compound 0.1 µM, first compound 0.949 µM
[11] = second compound 0.1 µM, first compound 3 µM
[12] = second compound 0.316 µM, first compound 0.00949 µM
[13] = second compound 0.316 µM, first compound 0.03 µM
[14] = second compound 0.316 µM, first compound 0.0949 µM
[15] = second compound 0.316 µM, first compound 0.3 µM
[16] = second compound 0.316 µM, first compound 0.949 µM
[17] = second compound 0.316 µM, first compound 3 µM
[18] = second compound 1 µM, first compound 0.00949 µM
[19] = second compound 1 µM, first compound 0.03 µM
[20] = second compound 1 µM, first compound 0.0949 µM
[21] = second compound 1 µM, first compound 0.3 µM
[22] = second compound 1 µM, first compound 0.949 µM
[23] = second compound 1 µM, first compound 3 µM
[24] = second compound 3.16 µM, first compound 0.00949 µM
[25] = second compound 3.16 µM, first compound 0.03 µM
[26] = second compound 3.16 µM, first compound 0.0949 µM
[27] = second compound 3.16 µM, first compound 0.3 µM
[28] = second compound 3.16 µM, first compound 0.949 µM
[29] = second compound 3.16 µM, first compound 3 µM
[30] = second compound 10 µM, first compound 0.00949 µM
[31] = second compound 10 µM, first compound 0.03 µM
[32] = second compound 10 µM, first compound 0.0949 µM
[33] = second compound 10 µM, first compound 0.3 µM
[34] = second compound 10 µM, first compound 0.949 µM
[35] = second compound 10 µM, first compound 3 µM
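Note: spheroids exposed to agents for seven days.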
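Throughout, for viability, T/C: 100% = DMSO vehicle control wells.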

## Nc1ccccc1NC(=O)c1ccc(CNC(=O)OCc2cccnc2)cc1 + NC1CC1c1ccc(-c2cccc(O)c2)cc1
[1]
  IC50: 87.6 nM
[2]
  IC50: 95.3 nM
[3]
  IC50: 85.9 nM
[4]
  IC50: 97.4 nM
[5]
  IC50: 94 nM
[6]
  viability, T/C: 91.9%
[7]
  viability, T/C: 77.1%
[8]
  viability, T/C: 47.3%
[9]
  viability, T/C: 21.1%
[10]
  viability, T/C: 6.12%
[11]
  viability, T/C: 0.47%
[12]
  viability, T/C: 92.1%
[13]
  viability, T/C: 70.1%
[14]
  viability, T/C: 54.5%
[15]
  viability, T/C: 23.7%
[16]
  viability, T/C: 8.22%
[17]
  viability, T/C: 0.62%
[18]
  viability, T/C: 92.8%
[19]
  viability, T/C: 64.3%
[20]
  viability, T/C: 55.9%
[21]
  viability, T/C: 24.9%
[22]
  viability, T/C: 9.16%
[23]
  viability, T/C: 5.91%
[24]
  viability, T/C: 90.2%
[25]
  viability, T/C: 72.7%
[26]
  viability, T/C: 51.5%
[27]
  viability, T/C: 26.6%
[28]
  viability, T/C: 10.4%
[29]
  viability, T/C: 0.51%
[30]
  viability, T/C: 86.5%
[31]
  viability, T/C: 69.1%
[32]
  viability, T/C: 46.5%
[33]
  viability, T/C: 37.3%
[34]
  viability, T/C: 10.1%
[35]
  viability, T/C: 0.3%

## Nc1ncn(C2CC(O)C(CO)S2)c(=O)n1 (configuration not stated) + NC1CCC(NC2CC2c2ccccc2)CC1
[1]
  IC50: 88.3 nM
[2]
  IC50: 98.8 nM
[3]
  IC50: 91.2 nM
[4]
  IC50: 85.2 nM
[5]
  IC50: 76.4 nM
Second compound 0.1 µM, first compound 0.000949 µM
  viability, T/C: 102%
Second compound 0.1 µM, first compound 0.003 µM
  viability, T/C: 93%
[6]
  viability, T/C: 99.5%
[7]
  viability, T/C: 69.4%
[8]
  viability, T/C: 52.4%
[9]
  viability, T/C: 41.5%
Second compound 0.316 µM, first compound 0.000949 µM
  viability, T/C: 91.5%
Second compound 0.316 µM, first compound 0.003 µM
  viability, T/C: 94.8%
[12]
  viability, T/C: 83.7%
[13]
  viability, T/C: 73%
[14]
  viability, T/C: 49.9%
[15]
  viability, T/C: 36.6%
Second compound 1 µM, first compound 0.000949 µM
  viability, T/C: 91.2%
Second compound 1 µM, first compound 0.003 µM
  viability, T/C: 93.3%
[18]
  viability, T/C: 79.6%
[19]
  viability, T/C: 67%
[20]
  viability, T/C: 49.5%
[21]
  viability, T/C: 39%
Second compound 3.16 µM, first compound 0.000949 µM
  viability, T/C: 96%
Second compound 3.16 µM, first compound 0.003 µM
  viability, T/C: 90%
[24]
  viability, T/C: 94.6%
[25]
  viability, T/C: 67.8%
[26]
  viability, T/C: 51.1%
[27]
  viability, T/C: 43.8%
Second compound 10 µM, first compound 0.000949 µM
  viability, T/C: 88.5%
Second compound 10 µM, first compound 0.003 µM
  viability, T/C: 83.2%
[30]
  viability, T/C: 71.9%
[31]
  viability, T/C: 61.1%
[32]
  viability, T/C: 46%
[33]
  viability, T/C: 42.1%

## COc1cc(C2c3cc4c(cc3C(OC3OC5COC(C)OC5C(O)C3O)C3COC(=O)C23)OCO4)cc(OC)c1O (configuration not stated) + NC1CC1c1ccc(-c2cccc(O)c2)cc1
[1]
  IC50: 164 nM
[2]
  IC50: 116 nM
[3]
  IC50: 185 nM
[4]
  IC50: 316 nM
[5]
  IC50: 321 nM
[6]
  viability, T/C: 92.1%
[7]
  viability, T/C: 76%
[8]
  viability, T/C: 56.4%
[9]
  viability, T/C: 42.7%
[10]
  viability, T/C: 30.3%
[11]
  viability, T/C: 23.8%
[12]
  viability, T/C: 87.8%
[13]
  viability, T/C: 75.6%
[14]
  viability, T/C: 52.9%
[15]
  viability, T/C: 33.9%
[16]
  viability, T/C: 31%
[17]
  viability, T/C: 22.6%
[18]
  viability, T/C: 90.4%
[19]
  viability, T/C: 79.6%
[20]
  viability, T/C: 53.6%
[21]
  viability, T/C: 46.3%
[22]
  viability, T/C: 29.9%
[23]
  viability, T/C: 18.3%
[24]
  viability, T/C: 89.5%
[25]
  viability, T/C: 72%
[26]
  viability, T/C: 63.6%
[27]
  viability, T/C: 40.5%
[28]
  viability, T/C: 54.4%
[29]
  viability, T/C: 18.4%
[30]
  viability, T/C: 83.6%
[31]
  viability, T/C: 77.8%
[32]
  viability, T/C: 59.9%
[33]
  viability, T/C: 51.6%
[34]
  viability, T/C: 39.5%
[35]
  viability, T/C: 27.8%

## O=C(C=Cc1cccc(S(=O)(=O)Nc2ccccc2)c1)NO
Compound 0.00949 µM
  viability, T/C: 88.8% and 89.7%
Compound 0.03 µM
  viability, T/C: 77.9% and 83.8%
Compound 0.0949 µM
  viability, T/C: 54.2% and 35.2%
Compound 0.3 µM
  viability, T/C: 23.9% and 15.3%
Compound 0.949 µM
  viability, T/C: 1.68% and 0.7%
Compound 3 µM
  viability, T/C: 0.32% and 3.39%
Curve of compound
  IC50: 111 nM and 68.4 nM

## Nc1ncn(C2CC(O)C(CO)O2)c(=O)n1 (configuration not stated) + NC1CC1c1ccc(-c2cccc(O)c2)cc1
[1]
  IC50: > 1000 nM
[2]
  IC50: > 1000 nM
[3]
  IC50: > 1000 nM
[4]
  IC50: > 1000 nM
[5]
  IC50: > 1000 nM
Second compound 0.1 µM, first compound 0.00316 µM
  viability, T/C: 78.6%
Second compound 0.1 µM, first compound 0.01 µM
  viability, T/C: 103%
Second compound 0.1 µM, first compound 0.0316 µM
  viability, T/C: 76.2%
Second compound 0.1 µM, first compound 0.1 µM
  viability, T/C: 75.2%
Second compound 0.1 µM, first compound 0.316 µM
  viability, T/C: 72.4%
Second compound 0.1 µM, first compound 1 µM
  viability, T/C: 77.8%
Second compound 0.316 µM, first compound 0.00316 µM
  viability, T/C: 103%
Second compound 0.316 µM, first compound 0.01 µM
  viability, T/C: 101%
Second compound 0.316 µM, first compound 0.0316 µM
  viability, T/C: 77.5%
Second compound 0.316 µM, first compound 0.1 µM
  viability, T/C: 69.5%
Second compound 0.316 µM, first compound 0.316 µM
  viability, T/C: 62.8%
Second compound 0.316 µM, first compound 1 µM
  viability, T/C: 73.5%
Second compound 1 µM, first compound 0.00316 µM
  viability, T/C: 94.4%
Second compound 1 µM, first compound 0.01 µM
  viability, T/C: 85.3%
Second compound 1 µM, first compound 0.0316 µM
  viability, T/C: 97.4%
Second compound 1 µM, first compound 0.1 µM
  viability, T/C: 75.2%
Second compound 1 µM, first compound 0.316 µM
  viability, T/C: 55.2%
Second compound 1 µM, first compound 1 µM
  viability, T/C: 72.4%
Second compound 3.16 µM, first compound 0.00316 µM
  viability, T/C: 108%
Second compound 3.16 µM, first compound 0.01 µM
  viability, T/C: 102%
Second compound 3.16 µM, first compound 0.0316 µM
  viability, T/C: 89.4%
Second compound 3.16 µM, first compound 0.1 µM
  viability, T/C: 54.9%
Second compound 3.16 µM, first compound 0.316 µM
  viability, T/C: 62.3%
Second compound 3.16 µM, first compound 1 µM
  viability, T/C: 69.1%
Second compound 10 µM, first compound 0.00316 µM
  viability, T/C: 98.8%
Second compound 10 µM, first compound 0.01 µM
  viability, T/C: 116%
Second compound 10 µM, first compound 0.0316 µM
  viability, T/C: 90.7%
Second compound 10 µM, first compound 0.1 µM
  viability, T/C: 77.4%
Second compound 10 µM, first compound 0.316 µM
  viability, T/C: 86%
Second compound 10 µM, first compound 1 µM
  viability, T/C: 66.9%
